The source of these data is PubChem BioAssay AID651883 (Southern Research Specialized Biocontainment Screening …, 2012).

For this test, the system named is VEEV Trinidad donkey virus titer reduction, cell culture. The experiment in a line: VEEV Trinidad donkey titer reduction, cell-based, Trinidad donkey strain (AID 651883). The settings on record: stronger effect = lower value.

For the molecule `CN1CCN(C)C(=Nc2ccc([N+](=O)[O-])cc2C(=O)Nc2ccccc2)C1`, the log virus titer change is under -5.95 (at 5 µM); under -5.95 (titer change, at 0.5 µM); under -5.95 (titer change, at 1 µM); under -5.95 (titer change, at 2 µM).
For the molecule `CCN1CCN(C)CC1=Nc1ccc([N+](=O)[O-])cc1C(=O)Nc1ccccc1`, the log virus titer change is under -5.95 (at 5 µM); under -5.95 (titer change, at 0.5 µM); under -5.95 (titer change, at 1 µM); under -5.95 (titer change, at 2 µM).
As to `COc1ccc(NC(=O)c2cc([N+](=O)[O-])ccc2N=C2CN(C)CCN2C)cc1`, the log virus titer change (at 5 µM) was under -5.95; the log virus titer change (titer change, at 0.5 µM) was under -5.95; the log virus titer change (titer change, at 1 µM) was under -5.95; the log virus titer change (titer change, at 2 µM) is under -5.95.
Regarding `CCN1CCN(Cc2nc3ccc([N+](=O)[O-])cc3c(=O)n2-c2ccccc2F)CC1`, the log virus titer change is, setting by setting: (at 5 µM) -5.84; (titer change, at 0.5 µM) -0.518; (titer change, at 1 µM) -2.39; (titer change, at 2 µM) under -5.95.
